Source: ChEMBL document CHEMBL2016562, “Optimization of Pharmacokinetics through Manipulation of Physicochemical Properties in a Series of HCV Inhibitors” (ACS Med Chem Lett, 2011)

How the values were obtained:
[1] = Mean residence time in Sprague-Dawley rat; format: ADME, organism-based; details: in vivo
[2] = Half life in Sprague-Dawley rat liver microsomes; format: ADME, Microsome
[3] = test system: Hepatitis C virus; assay: Antiviral activity against HCV subtype 1b in replicon cells after 3 days by luciferase reporter gene assay; format: functional, Hepacivirus hominis; details: genotype 1b, 72 h
[4] = Oral bioavailability in Sprague-Dawley rat after 30 mins; format: ADME, organism-based; details: in vivo
[5] = Volume of distribution at steady state in Sprague-Dawley rat after 30 mins; format: ADME, organism-based; details: in vivo, read-out: Vdss
[6] = Clearance in Sprague-Dawley rat after 30 mins; format: ADME, organism-based; details: in vivo
[7] = Apparent permeability by PAMPA assay; format: ADME

**Q.** What does the source list for `C[C@@H](Nc1nc(NC2(C(F)(F)F)CC2)c2nc(-c3cccc(S(C)(=O)=O)c3)ccc2n1)c1ccc(-n2cncn2)cc1`?
**A.** MRT [1]: 3.5 h; half-life [2]: 3.92 h; EC50 [3]: 4 nM; bioavailability [4]: 88%

**Q.** Which results are given for `COc1ccc(-c2ccc3nc(NCc4ccc(S(N)(=O)=O)cc4)nc(NC4(C#N)CC4)c3n2)cn1`?
**A.** MRT [1]: 0.4 h; half-life [2]: 1.62 h; EC50 [3]: 1 nM; bioavailability [4]: 2%

**Q.** Which results are given for `NS(=O)(=O)c1ccc(CNc2nc(NCC(F)(F)F)c3nc(-c4ccc(F)nc4)ccc3n2)cc1`?
**A.** MRT [1]: 4.9 h; half-life [2]: 4.63 h; EC50 [3]: 10 nM; Vd [5]: 1 L/kg; clearance [6]: 3.33 mL/min/kg

**Q.** What does the source list for `FC(F)(F)CNc1nc(NCc2ccc(-n3cncn3)cc2)nc2ccc(-c3ccc(OC4CC4)nc3)nc12`?
**A.** MRT [1]: 5.3 h; half-life [2]: > 6.58 h; EC50 [3]: 3 nM; bioavailability [4]: 59%

**Q.** With `N#CC1(Nc2nc(NCc3ccc(S(N)(=O)=O)cc3)nc3ccc(-c4ccc(F)nc4)nc23)CC1` as the molecule, how does the MRT [1] read?
**A.** 0.9 h

**Q.** What about the half-life [2] of the same molecule?
**A.** > 6.58 h

**Q.** And the EC50 [3]?
**A.** 5 nM

**Q.** What about the Vd [5] of the same molecule?
**A.** 0.9 L/kg

**Q.** And the clearance [6]?
**A.** 15 mL/min/kg

**Q.** Which half-life [2] does the source give for `NS(=O)(=O)c1cc(CNc2nc(NCC(F)(F)F)c3nc(-c4ccc(NC(=O)C5(C(F)(F)F)CC5)cc4)ccc3n2)cc(C(F)(F)F)c1` here?
**A.** > 6.58 h

**Q.** What about the EC50 [3] of the same molecule?
**A.** 6 nM

**Q.** And the bioavailability [4]?
**A.** 39%

**Q.** What about the Papp [7] of the same molecule?
**A.** 0.09 ×10⁻⁶ cm/s

**Q.** With `NS(=O)(=O)c1ccc(CNc2nc(NCC(F)(F)F)c3nc(-c4ccc(F)cc4)ccc3n2)cc1` as the molecule, how does the MRT [1] read?
**A.** 6.9 h

**Q.** What about the half-life [2] of the same molecule?
**A.** > 6.58 h

**Q.** What about the EC50 [3] of the same molecule?
**A.** 16 nM

**Q.** And the Vd [5]?
**A.** 2.3 L/kg

**Q.** And the clearance [6]?
**A.** 5 mL/min/kg

**Q.** What about the bioavailability [4] of the same molecule?
**A.** 100%

**Q.** What does the source list for `NS(=O)(=O)c1ccc(CNc2nc(NCC(F)(F)F)c3nc(-c4ccc(-n5cncn5)cc4)ccc3n2)cc1`?
**A.** half-life [2]: > 6.58 h; EC50 [3]: 2 nM; bioavailability [4]: 4%

**Q.** Which MRT [1] does the source give for `COc1ccc(-c2ccc3nc(N[C@H](C)c4ccc(-n5cncn5)cc4)nc(NCC(F)(F)F)c3n2)cc1S(C)(=O)=O` here?
**A.** 2.6 h

**Q.** And the half-life [2]?
**A.** 5.85 h

**Q.** What about the EC50 [3] of the same molecule?
**A.** 2 nM

**Q.** And the bioavailability [4]?
**A.** 47%

**Q.** For `NS(=O)(=O)c1ccc(CNc2nc(NCC(F)(F)F)c3nc(-c4ccc(NC(=O)C5CC5)cc4)ccc3n2)cc1`, which half-life [2] is on record?
**A.** 1.17 h

**Q.** What about the EC50 [3] of the same molecule?
**A.** 3 nM

**Q.** And the bioavailability [4]?
**A.** 1%

**Q.** And the Papp [7]?
**A.** 0.004 ×10⁻⁶ cm/s

**Q.** For `NS(=O)(=O)c1cc(Cl)cc(CNc2nc(NC3(C(F)(F)F)CC3)c3nc(-c4ccc(F)cc4)ccc3n2)c1`, which MRT [1] is on record?
**A.** 11 h

**Q.** And the half-life [2]?
**A.** > 6.58 h

**Q.** What about the EC50 [3] of the same molecule?
**A.** 28 nM

**Q.** What about the Vd [5] of the same molecule?
**A.** 4.3 L/kg

**Q.** What about the clearance [6] of the same molecule?
**A.** 6.67 mL/min/kg

**Q.** With `CC1(Oc2nc(NCc3ccc(-n4cncn4)cc3)nc3ccc(-c4ccc(OC5CC5)nc4)nc23)CC1` as the molecule, how does the MRT [1] read?
**A.** 1.9 h

**Q.** And the half-life [2]?
**A.** > 6.58 h

**Q.** What about the EC50 [3] of the same molecule?
**A.** 2 nM

**Q.** What about the bioavailability [4] of the same molecule?
**A.** 100%

**Q.** Which results are given for `COc1ccc(-c2ccc3nc(NCc4ccc(S(N)(=O)=O)cc4)nc(NCC(F)(F)F)c3n2)cc1S(C)(=O)=O`?
**A.** MRT [1]: 0.8 h; half-life [2]: > 6.58 h; EC50 [3]: 1 nM; bioavailability [4]: 1%
